Reference: ChEMBL document CHEMBL2346515, “Discovery of 4-alkylamino-7-aryl-3-cyanoquinoline LRRK2 kinase inhibitors” (Bioorg Med Chem Lett, 2013)

Columns and labels:
[1] = system: Brain; assay: Drug uptake in brain of mouse expressing mouse LRRK2 G2019S mutant at 100 mg/kg, po; format: ADME, organism-based; parameters: dose 100 mg/kg, route oral; conditions: in vivo
[2] = molecular target: Mitogen-activated protein kinase 10 (Homo sapiens) (UniProt P53779); assay: Inhibition of MAPK10 (unknown origin) at 1 uM by single point assay
[3] = system: Plasma; assay: Plasma concentration in mouse expressing mouse LRRK2 G2019S mutant at 100 mg/kg, po; format: ADME, organism-based; parameters: dose 100 mg/kg, route oral; conditions: in vivo
[4] = molecular target: Serine/threonine-protein kinase MARK2 (Homo sapiens) (UniProt Q7KZI7); assay: Inhibition of MARK2 (unknown origin) at 10 uM by single point assay
Sequence of Serine/threonine-protein kinase MARK2 (Homo sapiens) (Q7KZI7 whole entry): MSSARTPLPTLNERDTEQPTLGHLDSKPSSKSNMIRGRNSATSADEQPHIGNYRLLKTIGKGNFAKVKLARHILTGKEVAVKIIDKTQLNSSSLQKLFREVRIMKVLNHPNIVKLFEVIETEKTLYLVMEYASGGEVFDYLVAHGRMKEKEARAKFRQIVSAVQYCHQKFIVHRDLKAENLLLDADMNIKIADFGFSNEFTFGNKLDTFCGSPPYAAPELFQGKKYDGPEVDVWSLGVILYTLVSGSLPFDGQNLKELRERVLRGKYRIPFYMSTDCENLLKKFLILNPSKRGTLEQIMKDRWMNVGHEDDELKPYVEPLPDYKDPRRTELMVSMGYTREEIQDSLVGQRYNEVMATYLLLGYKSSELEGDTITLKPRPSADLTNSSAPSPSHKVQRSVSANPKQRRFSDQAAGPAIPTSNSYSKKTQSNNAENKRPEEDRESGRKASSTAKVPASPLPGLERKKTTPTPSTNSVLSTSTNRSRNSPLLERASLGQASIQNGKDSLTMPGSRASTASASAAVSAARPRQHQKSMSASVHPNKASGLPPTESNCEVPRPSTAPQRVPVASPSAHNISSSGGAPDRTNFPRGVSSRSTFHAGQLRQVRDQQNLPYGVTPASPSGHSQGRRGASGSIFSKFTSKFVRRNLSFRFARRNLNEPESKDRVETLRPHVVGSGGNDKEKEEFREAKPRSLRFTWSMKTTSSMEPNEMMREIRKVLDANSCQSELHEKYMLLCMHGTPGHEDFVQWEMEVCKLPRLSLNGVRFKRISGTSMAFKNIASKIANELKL

[5] = molecular target: cAMP-dependent protein kinase catalytic subunit alpha (Homo sapiens) (UniProt P17612); assay: Inhibition of PRKACA (unknown origin) at 10 uM by single point assay
[6] = molecular target: Serine/threonine-protein kinase PLK3 (Homo sapiens) (UniProt Q9H4B4); assay: Inhibition of PLK3 (unknown origin) at 10 uM by single point assay
[7] = molecular target: T1, Serine/threonine-protein kinase Chk1 (Homo sapiens) (UniProt O14757); assay: Inhibition of CHK1 (unknown origin) at 10 uM by single point assay
T1 sequence (whole entry): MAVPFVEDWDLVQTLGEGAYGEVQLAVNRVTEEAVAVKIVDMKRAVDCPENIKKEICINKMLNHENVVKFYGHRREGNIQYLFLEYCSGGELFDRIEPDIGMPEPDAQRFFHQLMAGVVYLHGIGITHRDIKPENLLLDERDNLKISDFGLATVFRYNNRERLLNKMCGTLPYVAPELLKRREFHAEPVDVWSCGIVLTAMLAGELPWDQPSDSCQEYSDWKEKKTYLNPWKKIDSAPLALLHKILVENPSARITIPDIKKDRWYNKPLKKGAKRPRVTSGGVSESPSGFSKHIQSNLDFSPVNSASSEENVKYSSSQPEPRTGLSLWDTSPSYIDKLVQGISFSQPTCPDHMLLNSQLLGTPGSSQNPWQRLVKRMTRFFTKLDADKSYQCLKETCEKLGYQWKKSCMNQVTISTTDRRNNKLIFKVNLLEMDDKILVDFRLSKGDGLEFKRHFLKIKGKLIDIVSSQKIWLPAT

[8] = molecular target: Receptor tyrosine-protein kinase erbB-4 (Homo sapiens) (UniProt Q15303); assay: Inhibition of ErbB4 (unknown origin) at 10 uM by single point assay
Sequence of Receptor tyrosine-protein kinase erbB-4 (Homo sapiens) (Q15303 whole entry): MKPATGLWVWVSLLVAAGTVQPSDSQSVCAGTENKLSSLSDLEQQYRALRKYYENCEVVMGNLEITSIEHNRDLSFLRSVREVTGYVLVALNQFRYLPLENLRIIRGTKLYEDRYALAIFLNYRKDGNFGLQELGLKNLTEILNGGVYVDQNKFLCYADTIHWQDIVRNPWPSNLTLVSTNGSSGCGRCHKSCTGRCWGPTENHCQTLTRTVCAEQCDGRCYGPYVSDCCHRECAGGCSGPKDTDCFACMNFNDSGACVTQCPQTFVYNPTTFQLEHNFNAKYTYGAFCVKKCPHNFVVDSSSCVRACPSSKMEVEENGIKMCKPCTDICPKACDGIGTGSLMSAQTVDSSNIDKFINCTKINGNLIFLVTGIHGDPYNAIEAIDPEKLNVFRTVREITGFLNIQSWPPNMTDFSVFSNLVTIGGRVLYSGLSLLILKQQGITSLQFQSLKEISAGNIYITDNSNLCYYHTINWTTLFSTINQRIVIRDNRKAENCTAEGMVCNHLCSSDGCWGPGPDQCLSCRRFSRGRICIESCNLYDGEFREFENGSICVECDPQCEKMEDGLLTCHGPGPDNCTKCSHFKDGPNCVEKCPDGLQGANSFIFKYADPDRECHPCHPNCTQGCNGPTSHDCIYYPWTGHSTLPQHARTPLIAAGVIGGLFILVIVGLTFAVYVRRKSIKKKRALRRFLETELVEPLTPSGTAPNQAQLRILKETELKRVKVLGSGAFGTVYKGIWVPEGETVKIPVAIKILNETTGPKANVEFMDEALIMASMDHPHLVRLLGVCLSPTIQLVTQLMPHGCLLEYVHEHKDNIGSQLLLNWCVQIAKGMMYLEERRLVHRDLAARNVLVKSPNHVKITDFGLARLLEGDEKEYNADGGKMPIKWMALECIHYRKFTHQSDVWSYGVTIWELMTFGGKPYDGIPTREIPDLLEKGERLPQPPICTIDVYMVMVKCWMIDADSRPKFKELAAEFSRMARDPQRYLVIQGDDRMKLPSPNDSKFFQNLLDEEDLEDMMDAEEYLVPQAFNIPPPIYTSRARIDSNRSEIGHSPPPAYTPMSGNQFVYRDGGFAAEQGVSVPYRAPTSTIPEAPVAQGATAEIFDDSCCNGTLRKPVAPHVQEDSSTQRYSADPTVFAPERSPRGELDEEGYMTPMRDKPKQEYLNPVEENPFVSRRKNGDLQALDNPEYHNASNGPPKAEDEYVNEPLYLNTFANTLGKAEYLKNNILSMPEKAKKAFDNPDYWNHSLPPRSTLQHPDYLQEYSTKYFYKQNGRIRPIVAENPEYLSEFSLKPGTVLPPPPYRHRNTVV

[9] = molecular target: Dual specificity tyrosine-phosphorylation-regulated kinase 1B (Homo sapiens) (UniProt Q9Y463); assay: Inhibition of DYRK1B (unknown origin) at 10 uM by single point assay
Sequence of Dual specificity tyrosine-phosphorylation-regulated kinase 1B (Homo sapiens) (Q9Y463 whole entry, looked up): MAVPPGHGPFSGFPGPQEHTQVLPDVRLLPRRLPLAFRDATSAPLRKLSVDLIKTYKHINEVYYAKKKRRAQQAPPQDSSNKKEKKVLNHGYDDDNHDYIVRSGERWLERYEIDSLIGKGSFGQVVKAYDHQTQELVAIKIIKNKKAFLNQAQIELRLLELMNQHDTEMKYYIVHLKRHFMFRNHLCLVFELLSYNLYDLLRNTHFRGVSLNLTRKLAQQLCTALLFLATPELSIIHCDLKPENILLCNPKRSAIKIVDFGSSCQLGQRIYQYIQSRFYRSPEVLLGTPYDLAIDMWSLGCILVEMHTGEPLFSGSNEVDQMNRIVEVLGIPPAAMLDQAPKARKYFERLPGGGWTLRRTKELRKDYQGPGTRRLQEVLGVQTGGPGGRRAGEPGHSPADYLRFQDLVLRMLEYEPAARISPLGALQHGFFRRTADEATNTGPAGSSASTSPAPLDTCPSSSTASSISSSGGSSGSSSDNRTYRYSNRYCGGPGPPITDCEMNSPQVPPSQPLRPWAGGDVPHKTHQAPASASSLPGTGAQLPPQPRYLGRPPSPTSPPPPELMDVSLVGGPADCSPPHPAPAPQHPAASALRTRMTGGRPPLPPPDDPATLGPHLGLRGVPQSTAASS

[10] = molecular target: Calcium/calmodulin-dependent protein kinase type II subunit alpha (Homo sapiens) (UniProt Q9UQM7); assay: Inhibition of CAMK2alpha (unknown origin) at 10 uM by single point assay
Sequence of Calcium/calmodulin-dependent protein kinase type II subunit alpha (Homo sapiens) (Q9UQM7 whole entry): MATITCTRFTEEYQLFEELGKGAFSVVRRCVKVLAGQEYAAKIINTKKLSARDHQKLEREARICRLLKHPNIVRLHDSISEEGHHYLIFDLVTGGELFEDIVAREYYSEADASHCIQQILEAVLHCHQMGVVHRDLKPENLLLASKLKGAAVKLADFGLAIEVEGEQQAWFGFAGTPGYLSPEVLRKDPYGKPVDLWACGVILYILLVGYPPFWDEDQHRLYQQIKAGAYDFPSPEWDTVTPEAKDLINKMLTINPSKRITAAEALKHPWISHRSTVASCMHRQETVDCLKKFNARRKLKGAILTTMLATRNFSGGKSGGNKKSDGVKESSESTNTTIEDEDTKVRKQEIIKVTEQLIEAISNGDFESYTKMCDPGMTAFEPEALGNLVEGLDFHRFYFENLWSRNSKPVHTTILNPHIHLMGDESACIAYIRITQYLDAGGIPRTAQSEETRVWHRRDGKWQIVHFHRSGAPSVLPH

[11] = molecular target: Mitogen-activated protein kinase 1 (Homo sapiens) (UniProt P28482); assay: Inhibition of MAPK1 (unknown origin) at 10 uM by single point assay
Sequence of Mitogen-activated protein kinase 1 (Homo sapiens) (P28482 whole entry): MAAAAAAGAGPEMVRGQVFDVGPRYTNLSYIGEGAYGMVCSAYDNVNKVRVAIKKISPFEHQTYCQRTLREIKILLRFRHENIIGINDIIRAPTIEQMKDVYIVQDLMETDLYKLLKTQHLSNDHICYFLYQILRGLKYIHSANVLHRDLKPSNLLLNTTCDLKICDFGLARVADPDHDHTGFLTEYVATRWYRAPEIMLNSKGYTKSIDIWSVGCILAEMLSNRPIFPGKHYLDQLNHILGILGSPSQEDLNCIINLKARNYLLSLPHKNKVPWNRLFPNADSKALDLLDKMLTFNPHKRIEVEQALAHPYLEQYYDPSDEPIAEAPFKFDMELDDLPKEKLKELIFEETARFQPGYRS

[12] = molecular target: Cyclin-dependent kinase 2/cyclin A (Homo sapiens) (UniProt P24941+P20248+P78396); assay: Inhibition of CDK2/cyclin A (unknown origin) at 10 uM by single point assay; format: protein-complex assay
[13] = molecular target: RAC-alpha serine/threonine-protein kinase (Homo sapiens) (UniProt P31749); assay: Inhibition of AKT1 (unknown origin) at 10 uM by single point assay
Sequence of RAC-alpha serine/threonine-protein kinase (Homo sapiens) (P31749 whole entry): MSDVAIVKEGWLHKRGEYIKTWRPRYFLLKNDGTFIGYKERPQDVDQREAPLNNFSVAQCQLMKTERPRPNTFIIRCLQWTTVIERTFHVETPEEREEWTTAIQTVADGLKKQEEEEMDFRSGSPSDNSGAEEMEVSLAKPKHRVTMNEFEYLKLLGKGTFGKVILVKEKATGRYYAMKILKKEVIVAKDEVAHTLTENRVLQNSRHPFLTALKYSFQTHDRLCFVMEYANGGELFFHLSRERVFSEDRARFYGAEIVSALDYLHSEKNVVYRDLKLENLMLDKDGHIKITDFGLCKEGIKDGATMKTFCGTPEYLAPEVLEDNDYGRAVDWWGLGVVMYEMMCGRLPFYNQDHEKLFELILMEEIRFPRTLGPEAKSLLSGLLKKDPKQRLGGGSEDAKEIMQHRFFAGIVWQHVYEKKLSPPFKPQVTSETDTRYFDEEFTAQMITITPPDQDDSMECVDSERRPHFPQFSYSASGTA

[14] = molecular target: T2, Mitogen-activated protein kinase kinase kinase 7 (Homo sapiens) (UniProt O43318); assay: Inhibition of MAP3K7 (unknown origin) at 10 uM by single point assay
T2 sequence (whole entry): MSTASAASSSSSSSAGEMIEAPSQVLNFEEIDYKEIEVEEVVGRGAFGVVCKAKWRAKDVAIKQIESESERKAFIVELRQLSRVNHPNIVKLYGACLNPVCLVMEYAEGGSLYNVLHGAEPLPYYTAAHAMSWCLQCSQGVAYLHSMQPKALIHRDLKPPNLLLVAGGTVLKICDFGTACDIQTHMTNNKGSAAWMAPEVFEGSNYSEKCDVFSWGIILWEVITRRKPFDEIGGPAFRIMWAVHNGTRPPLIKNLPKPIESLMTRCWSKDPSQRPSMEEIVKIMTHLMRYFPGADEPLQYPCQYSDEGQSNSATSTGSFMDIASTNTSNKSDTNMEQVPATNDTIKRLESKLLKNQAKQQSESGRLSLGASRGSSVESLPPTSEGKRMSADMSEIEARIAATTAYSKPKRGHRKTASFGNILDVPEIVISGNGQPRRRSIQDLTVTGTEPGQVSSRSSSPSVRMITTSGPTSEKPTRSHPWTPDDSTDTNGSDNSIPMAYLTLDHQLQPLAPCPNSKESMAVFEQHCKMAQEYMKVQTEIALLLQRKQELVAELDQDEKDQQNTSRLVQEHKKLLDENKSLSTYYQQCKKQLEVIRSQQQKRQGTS

[15] = molecular target: Tyrosine-protein kinase ABL1 (Homo sapiens) (UniProt P00519); assay: Inhibition of ABL1 (unknown origin) at 10 uM by single point assay
[16] = molecular target: Dual specificity protein kinase CLK1 (Homo sapiens) (UniProt P49759); assay: Inhibition of CLK1 (unknown origin) at 10 uM by single point assay
[17] = molecular target: Serine/threonine-protein kinase PLK2 (Homo sapiens) (UniProt Q9NYY3); assay: Inhibition of PLK2 (unknown origin) at 10 uM by single point assay
Sequence of Serine/threonine-protein kinase PLK2 (Homo sapiens) (Q9NYY3 whole entry, looked up): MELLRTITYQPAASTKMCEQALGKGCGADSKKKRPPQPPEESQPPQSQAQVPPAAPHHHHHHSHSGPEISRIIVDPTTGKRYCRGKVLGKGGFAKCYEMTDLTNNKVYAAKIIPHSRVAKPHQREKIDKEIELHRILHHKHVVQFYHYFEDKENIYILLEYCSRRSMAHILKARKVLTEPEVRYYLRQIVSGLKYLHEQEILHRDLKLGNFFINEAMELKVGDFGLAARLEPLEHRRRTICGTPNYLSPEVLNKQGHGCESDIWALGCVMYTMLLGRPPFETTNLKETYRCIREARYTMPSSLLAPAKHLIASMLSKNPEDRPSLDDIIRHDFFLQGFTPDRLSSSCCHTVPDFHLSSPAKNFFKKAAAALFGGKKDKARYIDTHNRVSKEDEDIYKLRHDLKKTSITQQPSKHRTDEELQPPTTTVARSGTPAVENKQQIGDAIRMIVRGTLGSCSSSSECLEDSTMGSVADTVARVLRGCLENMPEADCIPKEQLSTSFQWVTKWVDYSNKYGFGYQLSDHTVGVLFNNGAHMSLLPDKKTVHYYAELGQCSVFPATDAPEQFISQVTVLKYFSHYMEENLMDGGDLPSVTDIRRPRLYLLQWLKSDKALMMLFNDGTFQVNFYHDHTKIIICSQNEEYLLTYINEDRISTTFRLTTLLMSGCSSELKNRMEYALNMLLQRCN

[18] = molecular target: Rho-associated protein kinase 2 (Homo sapiens) (UniProt O75116); assay: Inhibition of ROCK2 (unknown origin) at 10 uM by single point assay
[19] = molecular target: T3, Serine/threonine-protein kinase 3 (Homo sapiens) (UniProt Q13188); assay: Inhibition of STK3 (unknown origin) at 10 uM by single point assay
T3 sequence (whole entry): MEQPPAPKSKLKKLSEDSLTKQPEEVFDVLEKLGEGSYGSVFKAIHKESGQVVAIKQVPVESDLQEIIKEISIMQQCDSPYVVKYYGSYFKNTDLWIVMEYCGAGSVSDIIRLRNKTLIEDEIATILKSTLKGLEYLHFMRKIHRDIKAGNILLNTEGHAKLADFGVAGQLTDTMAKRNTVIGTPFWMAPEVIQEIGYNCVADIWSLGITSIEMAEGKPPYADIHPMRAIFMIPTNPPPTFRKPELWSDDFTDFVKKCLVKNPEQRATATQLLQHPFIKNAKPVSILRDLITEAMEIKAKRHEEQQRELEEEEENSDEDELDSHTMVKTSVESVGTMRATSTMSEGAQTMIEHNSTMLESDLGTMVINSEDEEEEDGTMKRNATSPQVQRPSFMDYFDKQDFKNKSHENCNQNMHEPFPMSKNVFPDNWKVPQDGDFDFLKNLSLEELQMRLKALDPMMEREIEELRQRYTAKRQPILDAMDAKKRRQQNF

[20] = molecular target: Insulin receptor (Homo sapiens) (UniProt P06213); assay: Inhibition of INSR (unknown origin) at 10 uM by single point assay
[21] = molecular target: Tyrosine-protein kinase SYK (Homo sapiens) (UniProt P43405); assay: Inhibition of SYK (unknown origin) at 10 uM by single point assay

Structure (SMILES): CC(C)Nc1c(C#N)cnc2cc(-c3cnn(C)c3)ccc12
- Drug uptake [1]: 81.1 ng/mL
- inhibition [2]: 4%
- Cp [3]: 31.8 ng/mL

Structure (SMILES): C[C@@H](Nc1c(C#N)cnc2cc(-c3ccc(-n4ccoc4=O)cc3)ccc12)C1CC1
- inhibition [4]: 40%
- inhibition [5]: -3%
- inhibition [6]: 6%
- inhibition [7]: 31%
- inhibition [8]: 7%
- inhibition [9]: 24%
- inhibition [10]: 30%
- inhibition [11]: -2%
- inhibition [12]: 0%
- inhibition [13]: -2%
- inhibition [14]: -5%
- inhibition [15]: 30%
- inhibition [16]: 7%
- inhibition [17]: 54%
- inhibition [18]: 16%
- inhibition [19]: 18%
- inhibition [20]: 0%
- inhibition [21]: 71%
